The record followed here is US20050048093A1, “Methods and reagents for the control of infestations of parasites” (priority 2001, published 2005).

Assay type in all cases: in vivo
In assay [1] the test system is Varroa destructor. Briefly: Inhibition of the reproduction of V. destructor via dispensing of cis-8-heptadecene in bee colonies. The conditions noted are these: for Number of offspring of V. destructor inside the capped cells of Group B (10 μg) / Number of offspring of V. destructor inside the capped cells of Group A (100 μg): changed weekly. The method, then:
In Example 3, ten nuclei were prepared, ie bee colonies with a reduced number of individuals, in the order of several thousand. Each nucleus was placed in a hive with dimensions smaller than those of a standard hive. These nuclei were divided into three groups—A and B, each with three nuclei, and C, with four nuclei.
Into each hive, a dispensing mechanism comprising a nylon grid, with a 100 μm mesh, square and with a side measurement of 10 cm, supported by a sheet of aluminium, was introduced. Solutions of cis-8-heptadecene in various concentrations in 100 μl of hexane were placed on each of these grids. The solvent was left to evaporate before each test. Group A was treated with 100 μg of cis-8-C17H34 in 100 μl of hexane, Group B with 10 μg of cis-8-C17H34 in […], and Group C with 100 μl of hexane without the addition of cis-8-C17H34 (control grou). The dispensing mchanism was changed in each hive each week; and treatment lasted for three weeks. At the end of the test, the number of V. destructor individuals present on the adult bees and in the brood cells was determined. The brood cells were removed from the hives, opened and inspected. Finally, the V. destructor individuals killed by the treatment were counted. The numbers of offspring of the V. destructor individuals present in the brood cells were calculated, separately for each developmental stage of the bees, and specifically pink-eyed pupae (pp), black-eyed pupae (pd) and pigmented pupae and adult bees (ppd).

For assay [2], the system named is Varroa destructor. Briefly: Inhibition of the reproduction of V. destructor in natural cells. The following applies: Example 2, 10 days in hive. On the procedure: Example 2 was conducted in the same way as Example 1, except for the fact that the V. destructor mite was cultivated on bee larvae in natural cells from a beehive. In this example, too, the effect of 8-heptadecene on the reduction in the mean number of offspring produced by a female V. destructor in cells of natural honeycomb, kept in the hive, was verified.
For verification of the activity of cis-8-C17H34, two groups of natural cells were prepared. In the cells of the first group, referred to as the treated group, 1 μl of acetone containing 100 ng of cis-8-heptadecene was deposited. In the cells of the second group, the control group, 1 μl of the solvent alone, ie acetone, was deposited. The natural cells were cells just capped with honeycomb taken from infested hives and the product was deposited via injection of the solution using a microsyringe through the cell cap. Following treatment, the honeycomb was returned to the hive from which it was taken. After ten days, the honeycombs used for the experiment were brought to the laboratory; both the treated and control cells were opened and inspected. In the infested cells, the mean number of offspring produced by each varroa was counted. The experiment was replicated six times: in total, approximately 140 infested cells were examined for each group.

In assay [3] the test system is Varroa destructor. Briefly: Inhibition of the reproduction of V. destructor in artificial (gelatine) cells. The conditions noted are these: for Inhibitory activity in respect of varroa reproduction / Number of offspring per varroa female in the artificial cells treated (Mean) / Number of offspring per varroa female in the artificial cells treated: Example 5; for Inhibitory activity in respect of varroa reproduction: artificial cells, result in words; for Number of offspring per varroa female in the artificial cells treated (Mean) / Number of offspring per varroa female in the artificial cells treated: same procedure as Example 1; for Number of offspring per varroa female in the artificial cells treated (Mean): mean of three replications; for Number of offspring per varroa female in the artificial cells treated: single replications 1-3. On the procedure:
In Example 1, a chemical composition is made up of a solution of heptadecene in hexane, with a double bond in position 8 and cis configuration ([…]). The cis-8-heptadecene in a solution of hexane causes a reduction in reproduction, ie a reduction in the number of offspring produced by the Varroa destructor mite, raised in a laboratory environment, on bee larvae in gelatine cells. For verification of the activity of cis-8-C17H34, two groups of gelatine cells were prepared, with a diameter of 6.5 mm. In each of the two cells of the first group, 10 […] 100 ng of cis-8-heptadecene was deposited. This group was defined as the treated group. In the cells of the second group, 10 […] active compound was deposited. This group was defined as the control group. The substances were deposited into each cell using a micropipette. The solvent was left to evaporate and then one varroa and one bee larva from natural, just-capped cells were introduced into each cell in each of the groups. The varroa was thus cultivated on the bee larva, during the metamorphosis of the larva, as happens in nature. Cultivation took place at 35° C. and 75% relative humidity. After ten days Oust before the bee reached its adult state), the cells were opened and inspected by microscope and the offspring produced by each varroa female were counted. The experiment described above was conducted four times; in total, approximately 80 cells were used per group. Following the same procedure used in Example 1, a chemical composition made up of a solution of a heptadecene isomer as in Example 1, in this case the isomer with a double bond in position 6 (cis-6-C17H34), and a second composition containing a solution of cis-8-heptadecene (cis-8-C17H34) were applied.

Where “and” joins values, the source holds several entries; their conditions need not be identical. Equal entries are not always repeated.

On to `CCCCCCC/C=C\CCCCCCCC` [cis-8-heptadecene], for which the “Number of offspring of V. destructor inside the capped cells of Group B (10 μg)” value with Varroa destructor [1] (10 μg per dispenser, three weeks, PD: black-eyed pupae) came to 2.65; in the assay with Varroa destructor [1] (10 μg per dispenser, three weeks, PDD [sic]: pigmented pupae et adults), 3.20; in the assay on Varroa destructor [1] (10 μg per dispenser, three weeks, PP: pink-eyed pupae) it was 2. Moreover, the “Percentage distribution of V. destructor in Group B (10 μg): Varroa in the reproductive phase” value with Varroa destructor [1] (10 μg per dispenser, three weeks, adult female varroa in brood cells) is on record as 60 Percentage. For the same compound, the “Percentage distribution of V. destructor in Group B (10 μg): Varroa in the phoretic phase” value in the assay on Varroa destructor [1] (10 μg per dispenser, three weeks, adult female varroa on adult bees) was 40 Percentage. Besides, the “Number of offspring of V. destructor inside the capped cells of Group A (100 μg)” value was 2.63 in the assay on Varroa destructor [1] (100 μg per dispenser, three weeks, PD: black-eyed pupae); 3.29 with Varroa destructor [1] (100 μg per dispenser, three weeks, PDD [sic]: pigmented pupae et adults); 2 in the assay on Varroa destructor [1] (100 μg per dispenser, three weeks, PP: pink-eyed pupae). Besides, in the assay on Varroa destructor [1] (100 μg per dispenser, three weeks, adult female varroa in brood cells), the “Percentage distribution of V. destructor in Group A (100 μg): Varroa in the reproductive phase” value was 50 Percentage. Further, the “Percentage distribution of V. destructor in Group A (100 μg): Varroa in the phoretic phase” value in the assay with Varroa destructor [1] (100 μg per dispenser, three weeks, adult female varroa on adult bees) was determined as 50 Percentage. Also, in the assay on Varroa destructor [1] (Groups A (100 μg) and B (10 μg), as from the black-eyed pupa stage (pd), result in words), the “Reproduction of V. destructor in the cells of the hives” value is listed as “reduction, albeit modest”. Also, the “Number of offspring per varroa female in the natural cells treated with cis-8-heptadecene” value in the assay with Varroa destructor [2] (100 ng in 1 μl acetone per natural capped cell, single replications 1-6) was 3.2 and 2.5 and 3.6 and 3.1 and 3.7. Also, the “Number of offspring per varroa female in the natural cells treated with cis-8-heptadecene (Mean)” value in the assay with Varroa destructor [2] (100 ng per natural capped cell, mean of six replications) is given as 3.2. Also, in the assay on Varroa destructor [3] (Example 1, 100 ng per gelatine cell, 10 days, mean of four replications), the “Number of offspring per varroa female in the artificial cells treated with cis-8-heptadecene (Mean)” value is 1.7. Besides, the “Inhibitory activity in respect of varroa reproduction” value in the assay on Varroa destructor [3] was “demonstrated inhibitory activity”. The “Number of offspring per varroa female in the artificial cells treated (Mean)” value in the assay on Varroa destructor [3] is 1.9. Also, in the assay with Varroa destructor [3] (listed as cis-8-C17H34), the “Number of offspring per varroa female in the artificial cells treated” value was 2.0 and 1.5.

Regarding `CCCCC/C=C\CCCCCCCCCC` [cis-6-heptadecene], in the assay on Varroa destructor [3], the “Inhibitory activity in respect of varroa reproduction” value is listed as “demonstrated inhibitory activity” and the “Number of offspring per varroa female in the artificial cells treated (Mean)” value is recorded as 2.1. Besides, the “Number of offspring per varroa female in the artificial cells treated” value in the assay on Varroa destructor [3] (listed as cis-6-C17H34) was 2.4 and 2.3 and 1.7.
